Literature values in patent publication US9119854B2, “Methods for treating cancer using combination therapy” (CELGENE CORPORATION, priority 2013, dated 2015).

Key:
[1] = molecular target: BTK (Homo sapiens, UniProt Q06187); conditions: enzymatic and cellular assays; the '610 publication
[2] = system: B-cell
[3] = molecular target: CRBN (Homo sapiens, UniProt Q96SW2); conditions: in vitro; Ito et al., Science 2010
Sequence of CRBN (Q96SW2 whole entry): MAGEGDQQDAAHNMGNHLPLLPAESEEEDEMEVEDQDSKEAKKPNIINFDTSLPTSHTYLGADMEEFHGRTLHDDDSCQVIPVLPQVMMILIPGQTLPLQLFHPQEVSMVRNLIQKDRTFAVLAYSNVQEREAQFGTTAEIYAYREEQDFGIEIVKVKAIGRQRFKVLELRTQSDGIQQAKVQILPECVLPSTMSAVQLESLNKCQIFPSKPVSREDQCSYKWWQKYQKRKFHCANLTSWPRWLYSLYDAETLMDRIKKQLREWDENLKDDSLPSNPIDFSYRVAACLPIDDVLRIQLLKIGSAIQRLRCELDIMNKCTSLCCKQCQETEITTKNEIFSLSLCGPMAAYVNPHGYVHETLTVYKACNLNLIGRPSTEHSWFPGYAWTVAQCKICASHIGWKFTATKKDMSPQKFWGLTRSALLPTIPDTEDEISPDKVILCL
Sequence of CRBN (Q16531 whole entry partner): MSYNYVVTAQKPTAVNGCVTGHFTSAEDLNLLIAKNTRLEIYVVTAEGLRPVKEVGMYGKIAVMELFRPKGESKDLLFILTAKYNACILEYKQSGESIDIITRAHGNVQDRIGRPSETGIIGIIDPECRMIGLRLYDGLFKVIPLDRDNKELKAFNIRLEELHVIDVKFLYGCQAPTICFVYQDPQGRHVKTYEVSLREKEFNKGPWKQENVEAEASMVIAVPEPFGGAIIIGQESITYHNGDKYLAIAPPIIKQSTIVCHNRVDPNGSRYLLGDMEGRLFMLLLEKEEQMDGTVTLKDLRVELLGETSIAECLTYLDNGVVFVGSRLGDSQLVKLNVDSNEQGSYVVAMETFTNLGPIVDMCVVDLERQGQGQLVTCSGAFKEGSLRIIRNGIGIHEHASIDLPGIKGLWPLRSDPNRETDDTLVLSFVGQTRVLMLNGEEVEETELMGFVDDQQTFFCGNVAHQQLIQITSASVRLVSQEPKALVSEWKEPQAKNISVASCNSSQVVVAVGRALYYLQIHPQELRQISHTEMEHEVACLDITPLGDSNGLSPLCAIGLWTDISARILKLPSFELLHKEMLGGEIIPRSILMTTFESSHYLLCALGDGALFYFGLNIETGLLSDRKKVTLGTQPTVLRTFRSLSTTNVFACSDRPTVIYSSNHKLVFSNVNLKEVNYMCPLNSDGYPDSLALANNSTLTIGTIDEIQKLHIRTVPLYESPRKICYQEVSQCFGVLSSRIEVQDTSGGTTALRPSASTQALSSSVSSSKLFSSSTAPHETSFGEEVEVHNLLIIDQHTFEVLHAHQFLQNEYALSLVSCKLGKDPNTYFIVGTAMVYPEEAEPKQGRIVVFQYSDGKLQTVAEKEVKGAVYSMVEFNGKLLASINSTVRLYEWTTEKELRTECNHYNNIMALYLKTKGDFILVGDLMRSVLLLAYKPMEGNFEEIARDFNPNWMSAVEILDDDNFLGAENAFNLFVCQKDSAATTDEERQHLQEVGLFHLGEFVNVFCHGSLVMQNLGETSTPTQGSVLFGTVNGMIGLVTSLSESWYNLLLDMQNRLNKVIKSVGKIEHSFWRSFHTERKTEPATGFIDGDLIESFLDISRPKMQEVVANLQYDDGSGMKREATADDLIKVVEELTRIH
Sequence of CRBN (Q13619 whole entry partner): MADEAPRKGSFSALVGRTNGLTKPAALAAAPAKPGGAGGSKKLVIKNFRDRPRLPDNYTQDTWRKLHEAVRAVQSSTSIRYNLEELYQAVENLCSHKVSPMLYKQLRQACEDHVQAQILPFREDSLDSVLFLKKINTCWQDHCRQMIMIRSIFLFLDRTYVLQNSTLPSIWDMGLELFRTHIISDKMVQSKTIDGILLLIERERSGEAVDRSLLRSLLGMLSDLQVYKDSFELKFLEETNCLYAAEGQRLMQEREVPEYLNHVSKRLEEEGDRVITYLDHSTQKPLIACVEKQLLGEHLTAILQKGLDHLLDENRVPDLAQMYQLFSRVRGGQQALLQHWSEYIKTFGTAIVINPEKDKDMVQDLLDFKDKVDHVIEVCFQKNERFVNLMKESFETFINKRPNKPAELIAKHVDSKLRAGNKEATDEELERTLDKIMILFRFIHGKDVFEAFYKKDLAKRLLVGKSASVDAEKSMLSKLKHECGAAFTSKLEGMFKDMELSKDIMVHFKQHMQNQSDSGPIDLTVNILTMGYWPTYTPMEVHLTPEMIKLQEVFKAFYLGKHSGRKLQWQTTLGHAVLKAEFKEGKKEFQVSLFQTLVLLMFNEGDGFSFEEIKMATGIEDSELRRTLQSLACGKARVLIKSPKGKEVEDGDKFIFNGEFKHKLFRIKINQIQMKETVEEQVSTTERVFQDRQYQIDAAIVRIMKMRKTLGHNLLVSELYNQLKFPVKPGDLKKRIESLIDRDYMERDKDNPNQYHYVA
Sequence of CRBN (P62877 whole entry partner): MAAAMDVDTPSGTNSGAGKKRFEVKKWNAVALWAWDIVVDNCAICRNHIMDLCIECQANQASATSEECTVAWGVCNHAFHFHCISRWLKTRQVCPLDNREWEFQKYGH

Sequence of BTK (Q06187 whole entry, species assumed): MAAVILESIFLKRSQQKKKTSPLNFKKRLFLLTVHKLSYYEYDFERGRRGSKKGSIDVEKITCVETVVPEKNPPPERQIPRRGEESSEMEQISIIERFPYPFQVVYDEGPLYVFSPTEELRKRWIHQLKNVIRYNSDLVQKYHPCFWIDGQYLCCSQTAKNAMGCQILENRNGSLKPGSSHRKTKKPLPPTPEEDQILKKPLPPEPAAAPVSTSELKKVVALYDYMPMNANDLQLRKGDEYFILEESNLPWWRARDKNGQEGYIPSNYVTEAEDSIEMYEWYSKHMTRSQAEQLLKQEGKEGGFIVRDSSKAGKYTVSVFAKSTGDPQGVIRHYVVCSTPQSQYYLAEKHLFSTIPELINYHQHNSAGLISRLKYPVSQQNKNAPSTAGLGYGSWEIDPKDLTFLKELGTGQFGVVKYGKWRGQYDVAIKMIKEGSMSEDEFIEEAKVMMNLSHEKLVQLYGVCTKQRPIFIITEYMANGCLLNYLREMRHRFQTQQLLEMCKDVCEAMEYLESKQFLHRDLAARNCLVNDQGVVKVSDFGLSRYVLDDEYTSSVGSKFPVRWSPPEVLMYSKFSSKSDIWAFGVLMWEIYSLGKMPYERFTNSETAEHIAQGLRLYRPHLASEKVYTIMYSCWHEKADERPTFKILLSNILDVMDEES

| SMILES | inhibition of BTK [1] | B-cell proliferation and activation [2] | auto-ubiquitination of CRBN [3] |
| --- | --- | --- | --- |
| C=CC(=O)Nc1cccc(Nc2nc(Nc3ccc(OCCOC)cc3)ncc2F)c1 [Compound AA, N-(3-(5-fluoro-2-(4-(2-methoxyethoxy)phenylamino)pyrimidin-4-ylamino)phenyl)acrylamide] | covalent, irreversible inhibition | found to inhibit | – |
| O=C1CCC(N2C(=O)c3ccccc3C2=O)C(=O)N1 (stereo not drawn) [thalidomide] | – | – | able to inhibit |
